This is an account of results in patent US10206907B2, “Compounds useful for the treatment of degenerative and inflammatory diseases” (GALAPAGOS NV, priority 2008, dated 2019).

pIC50: −log10 of the molar value.

The pIC50 is the negative decadic logarithm of the IC50, by convention in mol/L.

For assay [1], the target named is Recombinant human JAK1 catalytic domain (Homo sapiens (Human), UniProt P23458). The assay is described as follows: JAK1 inhibition assay. The following applies: semi-quantitative score. The assay is classed as biochemical. An outline of the steps: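 IC50 values come from dose-response series, with each point expressed as percent inhibition of cpm. Vehicle sets full activity and 10 μM staurosporine sets background. Incorporated radioactivity counted by scintillation after washing with 75 mM phosphoric acid.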
Chain of Recombinant human JAK1 catalytic domain (P23458 850-1154): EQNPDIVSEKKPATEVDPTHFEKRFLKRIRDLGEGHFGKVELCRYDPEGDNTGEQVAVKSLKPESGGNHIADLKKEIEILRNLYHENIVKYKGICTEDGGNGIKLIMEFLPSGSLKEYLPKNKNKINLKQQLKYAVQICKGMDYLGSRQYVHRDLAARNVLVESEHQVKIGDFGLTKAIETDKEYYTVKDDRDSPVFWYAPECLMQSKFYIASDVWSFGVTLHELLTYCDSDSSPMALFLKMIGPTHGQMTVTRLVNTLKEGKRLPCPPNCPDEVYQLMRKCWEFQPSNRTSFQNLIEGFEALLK

In assay [2] the target is Recombinant human JAK2 catalytic domain (Homo sapiens (Human), UniProt O60674). The assay is described as follows: JAK2 inhibition assay. In kind it is biochemical. The following applies: semi-quantitative score. On the procedure: After 90 min at 30° C., reactions were stopped by adding of 25 μL/well of 150 mM phosphoric acid. […] Plates were washed 6 times with 300 μL per well of a 75 mM phosphoric acid solution and the bottom of the plates was sealed. 40 μL/well of Microscint-20 was added, the top of the plates was sealed and readout was performed using the Topcount (Perkin Elmer). Kinase activity was calculated by subtracting counts per minute (cpm) obtained in the presence of a positive control inhibitor (10 μM staurosporine) from cpm obtained in the presence of vehicle. The ability of a test compound to inhibit this activity was determined as: Percentage inhibition=((cpm determined for sample with test compound present−cpm determined for sample with positive control inhibitor) divided by (cpm determined in the presence of vehicle−cpm determined for sample with positive control inhibitor))*100%.
Chain of Recombinant human JAK2 catalytic domain (O60674 808-1132): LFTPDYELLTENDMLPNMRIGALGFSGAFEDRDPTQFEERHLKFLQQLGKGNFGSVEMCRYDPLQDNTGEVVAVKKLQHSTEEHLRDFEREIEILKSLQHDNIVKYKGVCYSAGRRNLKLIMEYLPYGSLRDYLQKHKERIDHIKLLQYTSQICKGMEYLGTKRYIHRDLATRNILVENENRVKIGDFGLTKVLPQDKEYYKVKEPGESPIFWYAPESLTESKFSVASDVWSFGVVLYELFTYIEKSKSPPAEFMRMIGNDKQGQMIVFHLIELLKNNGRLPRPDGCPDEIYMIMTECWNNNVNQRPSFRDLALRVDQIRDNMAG
Dose dilution series were prepared for the compounds enabling the testing of dose-response effects in the JAK2 assay and the calculation of the IC50 for each compound.

`O=C(Nc1nc2cccc(-c3cn(Cc4ccccc4)nn3)n2n1)C1CC1` [Compound 187, N-(5-(1-benzyl-1H-1,2,3-triazol-4-yl)-[1,2,4]triazolo[1,5-a]pyridin-2-yl)cyclopropanecarboxamide]: in assay [1], the pIC50 was 6.00 to 6.30. Regarding `O=C(Nc1nc2cccc(-c3cn(Cc4ccc(C(F)(F)F)nc4)nn3)n2n1)C1CC1` [Compound 188], in assay [1], the pIC50 is under 6.00.

As to `O=C(Nc1nc2cccc(-c3ccc(NS(=O)(=O)C4CC4)nc3)n2n1)C1CC1` [Compound 191, N-(5-(6-(cyclopropanesulfonamido)pyridin-3-yl)-[1,2,4]triazolo[1,5-a]pyridin-2-yl)cyclopropanecarboxamide], the negative logarithm of the IC50 (pIC50) in assay [1] was under 6.00. On the same count and under the same terms, with `O=C(Nc1nc2cccc(-c3cn(Cc4ccccn4)nn3)n2n1)C1CC1` [Compound 193] the figure was under 6.00. Still for that read-out and setting: with `O=C(Nc1nc2cccc(-c3ccc(S(=O)(=O)Cc4ccccn4)cc3)n2n1)C1CC1` [Compound 194, N-(5-(4-(pyridin-2-ylmethylsulfonyl)phenyl)-[1,2,4]triazolo[1,5-a]pyridin-2-yl)cyclopropanecarboxamide] the figure was 6.30 to 7.00.

On to `O=C(Nc1nc2cccc(-c3ccc(S(=O)(=O)Cc4cccnc4)cc3)n2n1)C1CC1` [Compound 195, N-(5-(4-(pyridin-3-ylmethylsulfonyl)phenyl)-[1,2,4]triazolo[1,5-a]pyridin-2-yl)cyclopropanecarboxamide], for which the pIC50 in assay [1] was 6.30 to 7.00. Take `CN1CCN(c2ccc(NC(=O)c3ccc(-c4cccc5nc(NC(=O)C6CC6)nn45)cc3)cn2)CC1` [Compound 205, 4-[2-(Cyclopropanecarbonyl-amino)-[1,2,4]triazolo[1,5-a]pyridin-5-yl]-N-[6-(4-methyl-piperazin-1-yl)-pyridin-3-yl]-benzamide]: the pIC50 in assay [1] was 6.30 to 7.00; in assay [2] it was 6.00 to 6.30.

Turning to `CC1(C)COCCN1Cc1ccc(-c2cccc3nc(NC(=O)C4CC4)nn23)cc1` [Compound 213, Cyclopropanecarboxylic acid {5-[4-(3,3-dimethyl-morpholin-4-ylmethyl)-phenyl]-[1,2,4]triazolo[1,5-a]pyridin-2-yl}-amide], the negative-log IC50 (pIC50) in assay [1] and in assay [2] was 6.30 to 7.00 in each case. Turning to `C[C@@H]1CN(Cc2ccc(-c3cccc4nc(NC(=O)C5CC5)nn34)cc2)C[C@H](C)O1` [Compound 214, Cyclopropanecarboxylic acid {5-[4-((2R,6S)-2,6-dimethyl-morpholin-4-ylmethyl)-phenyl]-[1,2,4]triazolo[1,5-a]pyridin-2-yl}-amide], the pIC50 in assay [1] and in assay [2] was 6.30 to 7.00 throughout.

Regarding `CC1(C)COCCN1C(=O)c1ccc(-c2cccc3nc(NC(=O)C4CC4)nn23)cc1` [Compound 216, Cyclopropanecarboxylic acid {5-[4-(3,3-dimethyl-morpholine-4-carbonyl)-phenyl]-[1,2,4]triazolo[1,5-a]pyridin-2-yl}-amide], the negative logarithm of the IC50 (pIC50) in assay [1] and in assay [2] was 6.30 to 7.00 throughout. `O=C(Nc1nc2cccc(-c3ccc(C(=O)N4C[C@@H]5C[C@H]4CO5)cc3)n2n1)C1CC1` [Compound 217, Cyclopropanecarboxylic acid {5-[4-((1S,4S)-2-oxa-5-aza-bicyclo[2.2.1]heptane-5-carbonyl)-phenyl]-[1,2,4]triazolo[1,5-a]pyridin-2-yl}-amide]: the pIC50 in assay [1] was 6.30 to 7.00; in assay [2] it was 6.00 to 6.30.

For the compound `Cn1nc(C2CC2)cc1NC(=O)c1ccc(-c2cccc3nc(NC(=O)C4CC4)nn23)cc1` [Compound 218, 4-[2-(Cyclopropanecarbonyl-amino)-[1,2,4]triazolo[1,5-a]pyridin-5-yl]-N-(5-cyclopropyl-2-methyl-2H-pyrazol-3-yl)-benzamide], the pIC50 in assay [1] and in assay [2] was 6.30 to 7.00 throughout.

In the case of `O=C(Nc1nc2cccc(-c3ccc(C(=O)N4CCC(C(=O)N5CCOCC5)CC4)cc3)n2n1)C1CC1` [Compound 219, Cyclopropanecarboxylic acid (5-{4-[4-(morpholine-4-carbony)-piperidine-1-carbonyl]-phenyl}-[1,2,4]triazolo[1,5-a]pyridin-2-yl)-amide], the pIC50 in assay [1] and in assay [2] was under 6.00 in each case. Consider `CC(=O)N1CCN(C(=O)c2ccc(-c3cccc4nc(NC(=O)C5CC5)nn34)cc2)CC1` [Compound 220, Cyclopropanecarboxylic acid {5-[4-(4-acetyl-piperazine-1-carbonyl)-phenyl]-[1,2,4]triazolo[1,5-a]pyridin-2-yl}-amide], for which the pIC50 was 6.30 to 7.00 in assay [1] and 6.00 to 6.30 in assay [2]. For the compound `O=C(Nc1nc2cccc(-c3ccc(CN4C[C@@H]5C[C@H]4CO5)cc3)n2n1)C1CC1` [Compound 230, Cyclopropanecarboxylic acid (5-{4-[(1S,4S)-1-(2-oxa-5-aza-bicyclo[2.2.1]hept-5-yl)methyl]-phenyl}-[1,2,4]triazolo[1,5-a]pyridin-2-yl)-amide], the negative logarithm of the IC50 (pIC50) in assay [1] and in assay [2] was 6.30 to 7.00 in each case. Consider `O=C(Nc1nc2cccc(-c3ccc(CNc4ccc(N5CCOCC5)nc4)cc3)n2n1)C1CC1` [Compound 237, Cyclopropanecarboxylic acid (5-{4-[(6-morpholin-4-yl-pyridin-3-ylamino)-methyl]-phenyl}-[1,2,4]triazolo[1,5-a]pyridin-2-yl)-amide], for which the pIC50 in assay [1] is 6.30 to 7.00; in assay [2], 6.00 to 6.30. Regarding `O=C(Nc1nc2cccc(-c3ccc(CN4CCC(O)CC4)cc3)n2n1)C1CC1` [Compound 242, Cyclopropanecarboxylic acid {5-[4-(4-hydroxy-piperidin-1-ylmethyl)-phenyl]-[1,2,4]triazolo[1,5-a]pyridin-2-yl}-amide], the pIC50 in assay [1] was 6.30 to 7.00; in assay [2], 6.00 to 6.30. Take `NC(=O)c1cccc(OCc2ccc(-c3cccc4nc(NC(=O)C5CC5)nn34)cc2)c1` [Compound 251, 3-{4-[2-(Cyclopropanecarbonyl-amino)-[1,2,4]triazolo[1,5-a]pyridin-5-yl]-benzyloxy}-benzamide]: in assay [2], the pIC50 is 6.30 to 7.00. Turning to `CCN1C[C@H]2C[C@@H]1CN2Cc1ccc(-c2cccc3nc(NC(=O)C4CC4)nn23)cc1` [Compound 253, Cyclopropanecarboxylic acid {5-[4-((1R,4R)-5-ethyl-2,5-diaza-bicyclo[2.2.1]hept-2-ylmethyl)-phenyl]-[1,2,4]triazolo[1,5-a]pyridin-2-yl}-amide], the pIC50 in assay [2] was 6.00 to 6.30. On to `O=C(Nc1nc2cccc(-c3ccc(CN4CCOCC4=O)cc3)n2n1)C1CC1` [Compound 254, Cyclopropanecarboxylic Acid {5-[4-(3-oxo-morpholin-4-ylmethyl)-phenyl]-[1,2,4]triazolo[1,5-a]pyridin-2-yl}-amide], for which the pIC50 in assay [2] is 6.00 to 6.30.

On to `COc1ccc(C(N)=O)cc1NCc1ccc(-c2cccc3nc(NC(=O)C4CC4)nn23)cc1` [Compound 255, 3-{4-[2-(Cyclopropanecarbonyl-amino)-[1,2,4]triazolo[1,5-a]pyridin-5-yl]-benzylamino}-4-methoxy-benzamide], for which the pIC50 in assay [2] was 6.00 to 6.30.

With `Cc1ccc(NCc2ccc(-c3cccc4nc(NC(=O)C5CC5)nn34)cc2)c(F)n1` [Compound 256, Cyclopropanecarboxylic acid (5-{4-[(2-fluoro-6-methyl-pyridin-3-ylamino)-methyl]-phenyl}-[1,2,4]triazolo[1,5-a]pyridin-2-yl)-amide], the pIC50 in assay [2] is 6.30 to 7.00. Same read-out and setting: the same measure for `N#Cc1ccc(NCc2ccc(-c3cccc4nc(NC(=O)C5CC5)nn34)cc2)c(F)c1` [Compound 258, Cyclopropanecarboxylic acid (5-{4-[(4-cyano-2-fluoro-phenylamino)-methyl]-phenyl}-[1,2,4]triazolo[1,5-a]pyridin-2-yl)-amide]: over 7.00; for `O=C(Nc1nc2cccc(-c3ccc(CN4CCCC4)cc3)n2n1)C1CC1` [Compound 260, Cyclopropanecarboxylic acid [5-(4-pyrrolidin-1-ylmethyl-phenyl)-[1,2,4]triazolo[1,5-a]pyridin-2-yl]-amide]: 6.30 to 7.00. As for `O=C(Nc1nc2cccc(-c3ccc(CNc4ccccc4)cc3)n2n1)C1CC1` [Compound 261, Cyclopropanecarboxylic acid [5-(4-phenylaminomethyl-phenyl)-[1,2,4]triazolo[1,5-a]pyridin-2-yl]-amide], the pIC50 in assay [2] was 6.30 to 7.00. Take `CC(=O)N(C)C1CCN(Cc2ccc(-c3cccc4nc(NC(=O)C5CC5)nn34)cc2)C1` (stereo not shown) [Compound 262, Cyclopropanecarboxylic acid (5-{4-[3-(acetyl-methyl-amino)-pyrrolidin-1-ylmethyl]-phenyl}-[1,2,4]triazolo[1,5-a]pyridin-2-yl)-amide]: in assay [2], the pIC50 was 6.30 to 7.00. Still for that read-out and setting: the same measure for `CN(C)C1CCN(Cc2ccc(-c3cccc4nc(NC(=O)C5CC5)nn34)cc2)C1` (stereo not shown) [Compound 263]: 6.30 to 7.00; for `O=C(Nc1nc2cccc(-c3ccc(CN4CCC(F)(F)C4)cc3)n2n1)C1CC1` [Compound 264, Cyclopropanecarboxylic acid {5-[4-(3,3-difluoro-pyrrolidin-1-ylmethyl)-phenyl]-[1,2,4]triazolo[1,5-a]pyridin-2-yl}-amide]: 6.30 to 7.00. As for `CC(=O)NC1CCN(C(=O)Cc2ccc(-c3cccc4nc(NC(=O)C5CC5)nn34)cc2)CC1` [Compound 323, Cyclopropanecarboxylic acid (5-{4-[2-(4-acetylamino-piperidin-1-yl)-2-oxo-ethyl]-phenyl}-[1,2,4]triazolo[1,5-a]pyridin-2-yl)-amide], the pIC50 in assay [1] is 6.00 to 6.30.
